Measurements taken from patent EP4273147A1, “SUBSTITUTED SPIROLACTAMS, SALTS THEREOF AND THEIR USE AS HERBICIDALLY ACTIVE SUBSTANCES” (Bayer Aktiengesellschaft, priority 2022, dated 2023).

How the values were obtained:
[1] = system: STEME; assay: Herbicidal pre-emergence action (Table A6); type: in vivo, Stellaria media; conditions: application rate 320 g/ha; visual grading after ca. 3 weeks
How it was run: (§1)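 Double sowing per pot (1 monocot + 1 dicot weed species), sandy loam substrate, seeds covered with soil.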

[2] = system: BRSNW; assay: Pre-emergence effects on crop plants (Table D5); type: in vivo, Brassica napus; conditions: crop plant; application rate 80 g/ha; visual grading after ca. 3 weeks
[3] = system: KCHSC; assay: Herbicidal pre-emergence action (Table A10); type: in vivo, Kochia scoparia; conditions: application rate 320 g/ha; visual grading after ca. 3 weeks
How it was run: as §1

[4] = system: ABUTH; assay: Herbicidal pre-emergence action (Table A1); type: in vivo, Abutilon theophrasti; conditions: visual grading after ca. 3 weeks vs untreated controls (100% = plants have died off, 0% = as control plants)
How it was run: as §1

[5] = system: ORYZA; assay: Post-emergence effects on crop plants (Table F3); type: in vivo, Oryza sativa; conditions: application rate 320 g/ha, crop plant ORYZA
From the text: (§2) 2 to 3 weeks after sowing, the test plants were sprayed in the single-leaf stage.

[6] = system: ALOMY; assay: Herbicidal pre-emergence action, section C (Table C2); type: in vivo, Alopecurus myosuroides; conditions: visual grading after ca. 3 weeks
[7] = system: ZEAMX; assay: Post-emergence effects on crop plants (Table F1); type: in vivo, Zea mays; conditions: application rate 320 g/ha, crop plant ZEAMX
From the text: as §2

[8] = system: LOLRI; assay: Herbicidal pre-emergence action, section C (Table C7); type: in vivo, Lolium rigidum; conditions: visual grading after ca. 3 weeks
[9] = system: SETVI; assay: Herbicidal post-emergence action, section E (Table E8); type: in vivo, Setaria viridis; conditions: application rate 320 g/ha; assessed visually after ca. 3 weeks
From the text: as §2

[10] = system: GLXMA; assay: Pre-emergence effects on crop plants (Table D4); type: in vivo, Glycine max; conditions: crop plant; application rate 80 g/ha; visual grading after ca. 3 weeks
[11] = system: VERPE; assay: Herbicidal pre-emergence action (Table A11); type: in vivo, Veronica persica; conditions: application rate 1280 g/ha; visual grading after ca. 3 weeks
How it was run: as §1

[12] = system: ECHCG; assay: Herbicidal pre-emergence action (Table A2); type: in vivo, Echinochloa crus-galli; conditions: application rate 320 g/ha; visual grading after ca. 3 weeks
How it was run: as §1

[13] = system: LOLRI; assay: Herbicidal post-emergence action (Table B5); type: in vivo, Lolium rigidum; conditions: application rate 1280 g/ha; rated visually after about 3 weeks
How it was run: (§3)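 Sow weeds in sandy loam pots, one species each; grow in greenhouse 2–3 weeks to one-leaf stage; treat; hold ~3 weeks under optimum conditions; rate damage visually vs untreated (0–100%).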

[14] = system: ORYZA; assay: Pre-emergence effects on crop plants (Table D3); conditions: crop plant; application rate 80 g/ha; visual grading after ca. 3 weeks
[15] = system: AMARE; assay: Herbicidal pre-emergence action, section C (Table C3); type: in vivo, Amaranthus retroflexus; conditions: application rate 320 g/ha; visual grading after ca. 3 weeks
[16] = system: ECHCG; assay: Herbicidal post-emergence action, section E (Table E5); type: in vivo, Echinochloa crus-galli; conditions: application rate 320 g/ha; assessed visually after ca. 3 weeks
From the text: as §2

[17] = system: STEME; assay: Herbicidal post-emergence action (Table B9); type: in vivo, Stellaria media; conditions: application rate 1280 g/ha
Method: (§4) Seeds of mono- and dicotyledonous weed plants were placed in plastic pots in sandy loam soil (doubly sown with in each case one species of mono- or dicotyledonous weed plants per pot), covered with soil and cultivated in a greenhouse under controlled growth conditions. 2 to 3 weeks after sowing, the test plants were treated at the one-leaf stage. […] After the test plants had been kept in the greenhouse under optimum growth conditions for about 3 weeks, the activity of the preparations was rated visually in comparison to untreated controls. For example, 100% activity = the plants have died, 0% activity = like control plants.

[18] = system: MATIN; assay: Herbicidal pre-emergence action (Table A4); type: in vivo, Matricaria inodora; conditions: application rate 320 g/ha; visual grading after ca. 3 weeks
How it was run: as §1

[19] = system: POAAN; assay: Herbicidal pre-emergence action (Table A7); type: in vivo, Poa annua; conditions: visual grading after ca. 3 weeks
How it was run: as §1

[20] = system: ECHCG; assay: Herbicidal pre-emergence action, section C (Table C6); type: in vivo, Echinochloa crus-galli; conditions: visual grading after ca. 3 weeks
From the text: (§5) Seeds of mono- and dicotyledonous weed plants and crop plants were sown, in plastic or organic planting pots, in sandy loam and covered with soil. The compounds according to the invention, formulated in the form of wettable powders (WP) or as emulsifiable concentrates (EC), were applied to the surface of the covering soil as aqueous suspension or emulsion, with the addition of 0.5% of an additive, at an application rate of 600 1 of water/ha (converted). Following treatment, the pots were placed in a greenhouse and kept under optimum growth conditions for the test plants.

[21] = system: AMARE; assay: Herbicidal post-emergence action (Table B11); type: in vivo, Amaranthus retroflexus; conditions: application rate 1280 g/ha
How it was run: as §3

[22] = system: ALOMY; assay: Herbicidal post-emergence action, section E (Table E2); type: in vivo, Alopecurus myosuroides; conditions: application rate 320 g/ha; assessed visually after ca. 3 weeks
From the text: as §2

[23] = system: MATIN; assay: Herbicidal pre-emergence action, section C (Table C8); type: in vivo, Matricaria inodora; conditions: application rate 320 g/ha; visual grading after ca. 3 weeks
[24] = system: ALOMY; assay: Herbicidal pre-emergence action (Table A9); type: in vivo, Alopecurus myosuroides; conditions: application rate 1280 g/ha; visual grading after ca. 3 weeks
How it was run: as §1

[25] = system: AMARE; assay: Herbicidal pre-emergence action (Table A8); type: in vivo, Amaranthus retroflexus; conditions: application rate 320 g/ha; visual grading after ca. 3 weeks vs untreated controls (100% = plants have died off, 0% = as control plants)
How it was run: as §1

[26] = system: POAAN; assay: Herbicidal post-emergence action (Table B7); type: in vivo, Poa annua
How it was run: as §3

[27] = system: SETVI; assay: Herbicidal pre-emergence action, section C (Table C10); type: in vivo, Setaria viridis; conditions: visual grading after ca. 3 weeks
[28] = system: ECHCG; assay: Herbicidal post-emergence action (Table B3); type: in vivo, Echinochloa crus-galli; conditions: rated visually after about 3 weeks
How it was run: as §3

[29] = system: LOLRI; assay: Herbicidal pre-emergence action (Table A3); type: in vivo, Lolium rigidum; conditions: visual grading after ca. 3 weeks
How it was run: as §1

[30] = system: SETVI; assay: Herbicidal pre-emergence action (Table A5); type: in vivo, Setaria viridis; conditions: application rate 320 g/ha; visual grading after ca. 3 weeks
How it was run: as §1

[31] = system: GLXMA; assay: Post-emergence effects on crop plants (Table F4); type: in vivo, Glycine max; conditions: crop plant GLXMA
From the text: as §2

[32] = system: KCHSC; assay: Herbicidal post-emergence action (Table B4); type: in vivo, Kochia scoparia; conditions: application rate 1280 g/ha; rated visually after about 3 weeks
Method: as §4

[33] = system: MATIN; assay: Herbicidal post-emergence action (Table B6); type: in vivo, Matricaria inodora; conditions: rated visually after about 3 weeks
How it was run: as §3

[34] = system: BRSNW; assay: Post-emergence effects on crop plants (Table F5); type: in vivo, Brassica napus; conditions: application rate 320 g/ha, crop plant BRSNW
From the text: as §2

[35] = system: ZEAMX; assay: Pre-emergence effects on crop plants (Table D1); type: in vivo, Zea mays; conditions: crop plant; application rate 80 g/ha; visual grading after ca. 3 weeks
[36] = system: TRZAS; assay: Post-emergence effects on crop plants (Table F2); type: in vivo, Triticum aestivum; conditions: application rate 320 g/ha, crop plant TRZAS
From the text: as §2

[37] = system: DIGSA; assay: Herbicidal pre-emergence action (Table A12); type: in vivo, Digitaria sanguinalis; conditions: application rate 320 g/ha; visual grading after ca. 3 weeks
How it was run: as §1

[38] = system: ABUTH; assay: Herbicidal post-emergence action (Table B1); type: in vivo, Abutilon theophrasti; conditions: application rate 320 g/ha; treated at one-leaf stage; rated visually after about 3 weeks vs untreated controls (100% = plants have died, 0% = like control plants)
How it was run: as §3

[39] = system: VERPE; assay: Herbicidal post-emergence action (Table B10); type: in vivo, Veronica persica; conditions: application rate 1280 g/ha
How it was run: as §3

[40] = system: SETVI; assay: Herbicidal post-emergence action (Table B8); type: in vivo, Setaria viridis; conditions: application rate 320 g/ha
How it was run: as §3

[41] = system: DIGSA; assay: Herbicidal pre-emergence action, section C (Table C5); type: in vivo, Digitaria sanguinalis; conditions: application rate 80 g/ha; visual grading after ca. 3 weeks
[42] = system: DIGSA; assay: Herbicidal post-emergence action (Table B12); type: in vivo, Digitaria sanguinalis; conditions: application rate 1280 g/ha
Method: as §4

[43] = system: VIOTR; assay: Herbicidal pre-emergence action, section C (Table C12); type: in vivo, Viola tricolor; conditions: application rate 80 g/ha; visual grading after ca. 3 weeks
[44] = system: VERPE; assay: Herbicidal pre-emergence action, section C (Table C11); type: in vivo, Veronica persica; conditions: application rate 320 g/ha; visual grading after ca. 3 weeks
From the text: as §5

[45] = system: ABUTH; assay: Herbicidal pre-emergence action, section C (Table C1); type: in vivo, Abutilon theophrasti; conditions: application rate 80 g/ha; visual grading after ca. 3 weeks
[46] = system: POLCO; assay: Herbicidal pre-emergence action, section C (Table C9); type: in vivo, Polygonum convolvulus; conditions: application rate 80 g/ha; visual grading after ca. 3 weeks
From the text: as §5

O=C1N(Cc2cccs2)CCCC12CCCN(Cc1c(F)cccc1F)C2=O (racemic) [I-011]
pre-emergence activity against STEME [1]: 90%
pre-emergence activity against BRSNW [2]: 20%
pre-emergence activity against KCHSC [3]: 90%
pre-emergence activity against ABUTH ([4]; application rate 1280 g/ha): 90%
post-emergence activity against ORYZA [5]: 20%
pre-emergence activity against ALOMY ([6]; application rate 320 g/ha): 90%
post-emergence activity against ZEAMX [7]: 10%
pre-emergence activity against LOLRI ([8]; application rate 80 g/ha): 80%
post-emergence activity against SETVI [9]: 80%
pre-emergence activity against GLXMA [10]: 20%
pre-emergence activity against VERPE [11]: 90%
pre-emergence activity against ECHCG [12]: 100%
post-emergence activity against LOLRI [13]: 90%
pre-emergence activity against ORYZA [14]: 10%
pre-emergence activity against AMARE [15]: 90%
post-emergence activity against ECHCG [16]: 80%
post-emergence activity against STEME [17]: 90%
pre-emergence activity against MATIN [18]: 90%
pre-emergence activity against POAAN ([19]; application rate 1280 g/ha): 100%
pre-emergence activity against ECHCG ([20]; application rate 320 g/ha): 90%
post-emergence activity against AMARE [21]: 90%
post-emergence activity against ALOMY [22]: 80%
pre-emergence activity against MATIN [23]: 80%
pre-emergence activity against ALOMY [24]: 90%
pre-emergence activity against AMARE [25]: 90%
post-emergence activity against POAAN ([26]; application rate 320 g/ha): 100%
pre-emergence activity against SETVI ([27]; application rate 80 g/ha): 100%
post-emergence activity against ECHCG ([28]; application rate 1280 g/ha): 90%
pre-emergence activity against LOLRI ([29]; application rate 1280 g/ha): 100%
pre-emergence activity against SETVI [30]: 100%
post-emergence activity against GLXMA ([31]; application rate 320 g/ha): 20%
post-emergence activity against KCHSC [32]: 90%
post-emergence activity against MATIN ([33]; application rate 320 g/ha): 90%
post-emergence activity against BRSNW [34]: 0%

O=C1N(Cc2ccccc2F)CCCC12CCN(Cc1cccc(F)c1F)C2=O (racemic) [I-016]
pre-emergence activity against STEME [1]: 90%
pre-emergence activity against KCHSC [3]: 90%
pre-emergence activity against ZEAMX [35]: 0%
pre-emergence activity against ABUTH ([4]; application rate 320 g/ha): 90%
post-emergence activity against TRZAS [36]: 0%
post-emergence activity against ORYZA [5]: 0%
pre-emergence activity against ALOMY ([6]; application rate 80 g/ha): 90%
post-emergence activity against ZEAMX [7]: 0%
pre-emergence activity against LOLRI ([8]; application rate 320 g/ha): 100%
pre-emergence activity against DIGSA [37]: 100%
pre-emergence activity against VERPE [11]: 90%
post-emergence activity against ABUTH [38]: 90%
pre-emergence activity against ECHCG [12]: 100%
post-emergence activity against VERPE [39]: 90%
pre-emergence activity against ORYZA [14]: 0%
pre-emergence activity against AMARE [15]: 90%
post-emergence activity against SETVI [40]: 90%
pre-emergence activity against MATIN [18]: 90%
pre-emergence activity against POAAN ([19]; application rate 320 g/ha): 100%
pre-emergence activity against DIGSA [41]: 100%
pre-emergence activity against ECHCG ([20]; application rate 80 g/ha): 100%
post-emergence activity against AMARE [21]: 90%
pre-emergence activity against MATIN [23]: 90%
pre-emergence activity against ALOMY [24]: 90%
pre-emergence activity against AMARE [25]: 90%
post-emergence activity against POAAN ([26]; application rate 1280 g/ha): 90%
pre-emergence activity against SETVI ([27]; application rate 320 g/ha): 100%
post-emergence activity against ECHCG ([28]; application rate 320 g/ha): 90%
post-emergence activity against DIGSA [42]: 90%
pre-emergence activity against VIOTR [43]: 90%
pre-emergence activity against LOLRI ([29]; application rate 320 g/ha): 100%
pre-emergence activity against SETVI [30]: 100%
post-emergence activity against GLXMA ([31]; application rate 80 g/ha): 0%
post-emergence activity against KCHSC [32]: 90%
pre-emergence activity against VERPE [44]: 90%
post-emergence activity against MATIN ([33]; application rate 1280 g/ha): 90%
pre-emergence activity against ABUTH [45]: 80%
pre-emergence activity against POLCO [46]: 90%
